Among the data in ChEMBL document CHEMBL1129332, “2-Phenyl-4-quinolinecarboxamides: a novel class of potent and selective non-peptide competitive antagonists for the human neurokinin-3 receptor” (J Med Chem, 1996) are Ki and Kb values, retold here.

The target of experiment [1] is T1, Substance-P receptor (Homo sapiens, UniProt P25103). The experiment can be described thus: Binding Affinity of [3H]- substance P towards Tachykinin receptor 1-CHO cell membranes (n=3-8).
The target of a further experiment is T2, Substance-K receptor (Homo sapiens, UniProt P21452).
T2 sequence (P21452 whole entry): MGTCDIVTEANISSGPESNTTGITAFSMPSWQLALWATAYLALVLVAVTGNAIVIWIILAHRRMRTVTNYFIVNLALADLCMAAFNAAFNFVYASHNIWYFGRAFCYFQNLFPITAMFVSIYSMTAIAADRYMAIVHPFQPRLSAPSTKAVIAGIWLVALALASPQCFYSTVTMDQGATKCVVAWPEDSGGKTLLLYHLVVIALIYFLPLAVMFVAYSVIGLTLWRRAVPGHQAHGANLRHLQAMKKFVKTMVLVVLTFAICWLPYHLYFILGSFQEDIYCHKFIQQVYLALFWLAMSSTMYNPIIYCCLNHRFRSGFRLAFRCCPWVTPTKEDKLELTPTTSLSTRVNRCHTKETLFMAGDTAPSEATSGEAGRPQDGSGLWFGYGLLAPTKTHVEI
It is filed as cell membranes, CHO.

Experiment [2] has as its target T1, Substance-P receptor. In words: Binding affinity against hTachykinin receptor 1 for the displacement of [3H]-substance P binding from Tachykinin receptor 1 CHO membrane.
For another experiment, the species on record is Oryctolagus cuniculus. The experiment can be described thus: Antagonism of senktide-induced contraction in rabbit isolated iris sphincter muscle. It is filed as functional.

T1 sequence (P25103 whole entry): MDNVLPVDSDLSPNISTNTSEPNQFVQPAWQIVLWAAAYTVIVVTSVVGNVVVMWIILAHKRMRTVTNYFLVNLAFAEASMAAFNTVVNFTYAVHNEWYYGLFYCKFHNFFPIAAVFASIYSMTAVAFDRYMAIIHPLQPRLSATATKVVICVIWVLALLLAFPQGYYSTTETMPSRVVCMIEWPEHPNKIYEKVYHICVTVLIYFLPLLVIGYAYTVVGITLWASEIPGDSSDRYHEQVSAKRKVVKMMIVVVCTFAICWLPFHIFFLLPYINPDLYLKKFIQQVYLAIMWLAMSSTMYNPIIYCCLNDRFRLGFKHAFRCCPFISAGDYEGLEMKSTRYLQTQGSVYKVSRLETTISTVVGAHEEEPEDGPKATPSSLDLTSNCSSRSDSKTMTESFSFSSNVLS

With `CC[C@H](NC(=O)c1c(C)c(-c2ccccc2)nc2ccccc12)c1ccccc1` [SB-222200], the values for the Ki at Substance-P receptor [1] and on Substance-K receptor were above 100000 nM and 277 nM, respectively. For the compound `COC(=O)C(NC(=O)c1cc(-c2ccccc2)nc2ccccc12)c1ccccc1` (configuration not stated), the inhibitory constant (Ki) on Substance-P receptor [1] was above 100000 nM; at Substance-K receptor, 2950 nM. Compound `COc1ccc2c(C(=O)NCc3ccccc3)cc(-c3ccccc3)nc2c1` registered a Ki on Substance-P receptor [2] above 10000 nM. With `COC(=O)[C@@H](NC(=O)c1cc(-c2ccccc2)nc2ccccc12)c1ccccc1`, the Ki was above 100000 nM at Substance-P receptor [1] and 1220 nM at Substance-K receptor. For the compound `CC(=O)N(C)C1(c2ccccc2)CCN(CCC[C@]2(c3ccc(Cl)c(Cl)c3)CCCN(C(=O)c3ccccc3)C2)CC1` [OSANETANT], the Kb in the experiment filed under Oryctolagus cuniculus is 2 nM. Consider `COC(=O)[C@H](NC(=O)c1cc(-c2ccccc2)nc2ccccc12)c1ccccc1`, for which the Ki was above 100000 nM at Substance-P receptor [1] and 8330 nM at Substance-K receptor. For `CC[C@H](NC(=O)c1cc(-c2ccccc2)nc2ccccc12)c1ccccc1` [AZD-7624] the same measures were above 100000 nM and 237 nM.
